According to PubChem BioAssay (NCI):
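Tested at 5 concentrations; 48 h exposure; 96-well plates; endpoints linearly interpolated, else capped at highest concentration. Definition used: TGI = concentration required for complete inhibition of growth.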

Key:
Assay in all cases: NCI tumour cell line growth inhibition, 48 h
786-0 renal = test system: 786-0 renal
A498 renal = test system: A498 renal
A549 NSCLC = test system: A549 NSCLC
ACHN renal = test system: ACHN renal
BT-549 breast = test system: BT-549 breast
CAKI-1 renal = test system: CAKI-1 renal
CCRF-CEM leukemia = test system: CCRF-CEM leukemia
COLO 205 colon = test system: COLO 205 colon
DU-145 prostate = test system: DU-145 prostate
EKVX NSCLC = test system: EKVX NSCLC
HCC-2998 colon = test system: HCC-2998 colon
HCT-116 colon = test system: HCT-116 colon
HCT-15 colon = test system: HCT-15 colon
HL-60(TB) leukemia = test system: HL-60(TB) leukemia
HOP-62 NSCLC = test system: HOP-62 NSCLC
HOP-92 NSCLC = test system: HOP-92 NSCLC
HS 578T breast = test system: HS 578T breast
HT29 colon = test system: HT29 colon
IGROV1 ovarian = test system: IGROV1 ovarian
K-562 leukemia = test system: K-562 leukemia
KM12 colon = test system: KM12 colon
LOX IMVI melanoma = test system: LOX IMVI melanoma
M14 melanoma = test system: M14 melanoma
MALME-3M melanoma = test system: MALME-3M melanoma
MCF7 breast = test system: MCF7 breast
MDA-MB-231 breast = test system: MDA-MB-231 breast
MDA-MB-435 = test system: MDA-MB-435
MDA-N = test system: MDA-N
MOLT-4 leukemia = test system: MOLT-4 leukemia
NCI-H226 lung = test system: NCI-H226 lung
NCI-H23 lung = test system: NCI-H23 lung
NCI-H460 lung = test system: NCI-H460 lung
NCI-H522 lung = test system: NCI-H522 lung
NCI/ADR-RES ovarian = test system: NCI/ADR-RES ovarian
OVCAR-3 ovarian = test system: OVCAR-3 ovarian
OVCAR-4 ovarian = test system: OVCAR-4 ovarian
OVCAR-5 ovarian = test system: OVCAR-5 ovarian
OVCAR-8 ovarian = test system: OVCAR-8 ovarian
PC-3 prostate = test system: PC-3 prostate
RPMI-8226 leukemia = test system: RPMI-8226 leukemia
RXF 393 renal = test system: RXF 393 renal
SF-268 CNS = test system: SF-268 CNS
SF-295 CNS = test system: SF-295 CNS
SF-539 CNS = test system: SF-539 CNS
SK-MEL-2 melanoma = test system: SK-MEL-2 melanoma
SK-MEL-28 melanoma = test system: SK-MEL-28 melanoma
SK-MEL-5 melanoma = test system: SK-MEL-5 melanoma
SK-OV-3 ovarian = test system: SK-OV-3 ovarian
SN12C renal = test system: SN12C renal
SNB-19 CNS = test system: SNB-19 CNS
SNB-75 CNS = test system: SNB-75 CNS
SW-620 colon = test system: SW-620 colon
T-47D breast = test system: T-47D breast
TK-10 renal = test system: TK-10 renal
U251 CNS = test system: U251 CNS
UACC-257 melanoma = test system: UACC-257 melanoma
UACC-62 melanoma = test system: UACC-62 melanoma
UO-31 renal = test system: UO-31 renal
SR leukemia = test system: SR leukemia

## COc1ccc(/C(Nc2ccccc2)=C(\CCl)c2ccccc2)cc1OC
786-0 renal
  TGI: > 100 µM
A498 renal
  TGI: > 100 µM
A549 NSCLC
  TGI: > 100 µM
ACHN renal
  TGI: > 100 µM
BT-549 breast
  TGI: > 100 µM
CAKI-1 renal
  TGI: > 100 µM
CCRF-CEM leukemia
  TGI: 65.5 µM
COLO 205 colon
  TGI: > 100 µM
DU-145 prostate
  TGI: > 100 µM
EKVX NSCLC
  TGI: > 100 µM
HCC-2998 colon
  TGI: > 100 µM
HCT-116 colon
  TGI: 48.9 µM
HCT-15 colon
  TGI: > 100 µM
HL-60(TB) leukemia
  TGI: 50 µM
HOP-62 NSCLC
  TGI: > 100 µM
HOP-92 NSCLC
  TGI: > 100 µM
HS 578T breast
  TGI: > 100 µM
HT29 colon
  TGI: > 100 µM
IGROV1 ovarian
  TGI: > 100 µM
K-562 leukemia
  TGI: 64.9 µM
KM12 colon
  TGI: > 100 µM
LOX IMVI melanoma
  TGI: > 100 µM
M14 melanoma
  TGI: > 100 µM
MALME-3M melanoma
  TGI: > 100 µM
MCF7 breast
  TGI: > 100 µM
MDA-MB-231 breast
  TGI: > 100 µM
MDA-MB-435
  TGI: > 100 µM
MDA-N
  TGI: > 100 µM
MOLT-4 leukemia
  TGI: > 100 µM
NCI-H226 lung
  TGI: > 100 µM
NCI-H23 lung
  TGI: > 100 µM
NCI-H460 lung
  TGI: > 100 µM
NCI-H522 lung
  TGI: > 100 µM
NCI/ADR-RES ovarian
  TGI: > 100 µM
OVCAR-3 ovarian
  TGI: > 100 µM
OVCAR-4 ovarian
  TGI: > 100 µM
OVCAR-5 ovarian
  TGI: > 100 µM
OVCAR-8 ovarian
  TGI: > 100 µM
PC-3 prostate
  TGI: > 100 µM
RPMI-8226 leukemia
  TGI: > 100 µM
RXF 393 renal
  TGI: > 100 µM
SF-268 CNS
  TGI: > 100 µM
SF-295 CNS
  TGI: > 100 µM
SF-539 CNS
  TGI: > 100 µM
SK-MEL-2 melanoma
  TGI: 79.9 µM
SK-MEL-28 melanoma
  TGI: > 100 µM
SK-MEL-5 melanoma
  TGI: 72.2 µM
SK-OV-3 ovarian
  TGI: > 100 µM
SN12C renal
  TGI: > 100 µM
SNB-19 CNS
  TGI: > 100 µM
SNB-75 CNS
  TGI: > 100 µM
SW-620 colon
  TGI: > 100 µM
T-47D breast
  TGI: > 100 µM
TK-10 renal
  TGI: > 100 µM
U251 CNS
  TGI: 64.7 µM
UACC-257 melanoma
  TGI: > 100 µM
UACC-62 melanoma
  TGI: > 100 µM
UO-31 renal
  TGI: > 100 µM

## CCN(CC)CCNc1ccc([N+](=O)[O-])c2nc3ccc(OC)cc3c(NCCN(CC)CC)c12
786-0 renal
  TGI: 1.56 µM
A498 renal
  TGI: 4.05 µM
A549 NSCLC
  TGI: 3.4 µM
ACHN renal
  TGI: > 10 µM
CAKI-1 renal
  TGI: 8.6 µM
CCRF-CEM leukemia
  TGI: 1.54 µM
COLO 205 colon
  TGI: 1.59 µM
DU-145 prostate
  TGI: > 7.37 µM
EKVX NSCLC
  TGI: 5.02 µM
HCC-2998 colon
  TGI: 2.01 µM
HCT-116 colon
  TGI: 2.13 µM
HCT-15 colon
  TGI: 2.52 µM
HL-60(TB) leukemia
  TGI: 2.53 µM
HOP-62 NSCLC
  TGI: 3.75 µM
HOP-92 NSCLC
  TGI: 5.42 µM
HS 578T breast
  TGI: 3.91 µM
HT29 colon
  TGI: 2.63 µM
IGROV1 ovarian
  TGI: 7.15 µM
K-562 leukemia
  TGI: 1.38 µM
KM12 colon
  TGI: 3.6 µM
LOX IMVI melanoma
  TGI: 2.43 µM
M14 melanoma
  TGI: > 5.3 µM
MALME-3M melanoma
  TGI: 5.07 µM
MCF7 breast
  TGI: 2.71 µM
MDA-MB-231 breast
  TGI: 2.45 µM
MDA-MB-435
  TGI: > 4.78 µM
MDA-N
  TGI: 2.39 µM
MOLT-4 leukemia
  TGI: > 3.13 µM
NCI-H226 lung
  TGI: 3.8 µM
NCI-H23 lung
  TGI: 4.38 µM
NCI-H460 lung
  TGI: 1.41 µM
NCI-H522 lung
  TGI: 2.51 µM
NCI/ADR-RES ovarian
  TGI: 2.76 µM
OVCAR-3 ovarian
  TGI: 4.95 µM
OVCAR-4 ovarian
  TGI: 3.1 µM
OVCAR-5 ovarian
  TGI: 4.79 µM
OVCAR-8 ovarian
  TGI: > 4.16 µM
PC-3 prostate
  TGI: 2.1 µM
RPMI-8226 leukemia
  TGI: > 4.4 µM
RXF 393 renal
  TGI: 2.59 µM
SF-268 CNS
  TGI: > 10 µM
SF-295 CNS
  TGI: 2.6 µM
SF-539 CNS
  TGI: 2.43 µM
SK-MEL-2 melanoma
  TGI: 4.87 µM
SK-MEL-28 melanoma
  TGI: > 8.37 µM
SK-MEL-5 melanoma
  TGI: 2.98 µM
SK-OV-3 ovarian
  TGI: > 10 µM
SN12C renal
  TGI: 3.69 µM
SNB-19 CNS
  TGI: 2.78 µM
SNB-75 CNS
  TGI: > 5.11 µM
SR leukemia
  TGI: 0.609 µM
SW-620 colon
  TGI: 2.51 µM
T-47D breast
  TGI: > 10 µM
TK-10 renal
  TGI: > 8.78 µM
U251 CNS
  TGI: 2.59 µM
UACC-257 melanoma
  TGI: > 10 µM
UACC-62 melanoma
  TGI: > 10 µM
UO-31 renal
  TGI: 3.71 µM
